Test results published in patent US20250361490A1, “COMPOSITION AND METHOD FOR CRYOPRESERVATION OF MITOCHONDRIA” (cellvie AG, priority 2022, published 2025).

Test system: isolated mitochondria from human cardiac fibroblast (HCF) cells
Test: Mitochondrial membrane potential assay (MitoTracker Red CMXRos / MitoTracker Green FM staining)
Format: cell-based
Conditions: single cryoprotectant at 5%, 10%, 20% (v/v) in trehalose-based isolation buffer; frozen on dry ice, thawed 37° C.; normalized to non-frozen control
Description: Procedure: Isolated mitochondria in the form of pellets were resuspended in two different isolation buffers containing respectively either 300 mM sucrose or 300 mM trehalose and then frozen in 1.5 ml Eppendorf tubes by placing them either in liquid nitrogen for approximately 1 minute or on dry ice for approximately 3 minutes. For thawing, the tubes were placed in a 37° C. water bath until the entire sample was thawed, and then immediately transferred on ice.
To assess the mitochondrial membrane potential, the isolated mitochondria were resuspended either in the sucrose-containing isolation buffer or in the trehalose-containing isolation buffer at 1 mg/ml, and 15 μg of mitochondrial suspension were used for each sample. Both non-frozen mitochondria and mitochondria frozen and thawed according to procedure described under section 2.2 were stored on ice until use, e.g., stored for a period of 5 minutes to maximum 60 minutes, preferably for a few minutes (e.g., for a period of maximum 15 minutes, such as 5 minutes or 10 minutes). For Mitotracker Red CMXRos/Mitotracker Green FM staining, a labelling solution was prepared, by adding 200 nM MitoTracker Red CMxROS and 200 nM MitoTracker Green FM (Thermo Fisher) in the isolation buffer. The isolated mitochondria were then suspended in 1 ml of the labelling solution, vortexed and incubated for 15 minutes in a 37° C. incubator. Mitochondria were sedimented by centrifugation at 9500 g for 5 minutes at 4° C., washed once with the respective isolation buffer, and resuspended in the isolation buffer at a concentration of 1 mg/ml. […] MitoTracker Red or MitoTracker Green signal was quantified using Keyence BZ-800 Analyzer software, integrated brightness per image was taken for calculations and averaged between images taken from one sample.
The effect of cryoprotectant addition on maintaining integrity of the inner mitochondrial membrane was studied using MitoTracker staining assay, as described in Example 2.3. […] Alle frozen samples were thawed in a 37° C. water bath and analyzed by MitoTracker staining.

SMILES | integrity of the inner mitochondrial membrane (MitoTracker Red staining)
O=C(O)[C@@H]1CCCN1 [CRYO6, L-Proline] | preserve mitochondria inner membrane integrity
OC[C@H]1O[C@@](CO)(O[C@H]2O[C@H](CO)[C@@H](O)[C@H](O)[C@H]2O)[C@@H](O)[C@@H]1O [CRYO25, D-(+)-Sucrose] | preserve mitochondria inner membrane integrity
O.O=C[C@H](O)[C@@H](O)[C@H](O)[C@H](O)CO [CRYO33, D-(+)-Glucose monohydrate] | preserve mitochondria inner membrane integrity
